What was measured:
Assay type in all cases: physicochemical
[1] = Fluidity and repose angle before and after open storage at 25° C./75% RH for 0~3 h
Method: (§1) Study method: 5 g of sample was weighed into a weighing dish (60*30 mm), and placed in an open position at 25° C./75% RH to observe the moisture-proof effect for 0˜3 h.

[2] = Score of fluidity, adhesiveness and deliquescence at 25° C./75% RH
Method: as §1
(§2) See Table 3-1 for the scoring standards of some examples. See Table 3-2 for the score results of fluidity, adhesiveness and deliquescence of moisture-proof L-α-glycerylphosphorylcholine.

[3] = Passing rate of 20-mesh sieve at 25° C./75% RH
Method: as §1, §2

[4] = Hygroscopicity: moisture absorption weight gain in artificial climate box; conditions: temperature 25° C., relative humidity 75%
Method: Specific test method: A dry glass weighing bottle with plug (outer diameter 50 mm, height 15 mm) was placed in an artificial climate box (temperature 25° C., relative humidity 75%) one day before the test, and was accurately weighed (m1). An appropriate amount of test sample was spread in the weighing bottle (thickness of test sample is generally about 1 mm), and it was accurately weighed (m2). The weighing bottle was opened and placed with the bottle cap under the above-mentioned constant temperature and humidity conditions. The weighing bottle was taken out at 5 min, 10 min, 20 min, 30 min, 60 min, 120 min and 180 min respectively, and accurately weighed (m3). The weight gain percentage was calculated according to the calculation formula: weight gain percentage=100%× (m3−m2)/(m2−m1).

[5] = after open placing at 25° C./75% RH, 3 h
[6] = before placing at 25° C./75% RH

## C[N+](C)(C)CCOP(=O)([O-])OC[C@H](O)CO [Raw material, L-α-glycerylphosphorylcholine]
[1]; [5]
  Appearance and fluidity, After: All deliquescent and
  Repose angle, After: unmeasurable
[1]; [6]
  Appearance and fluidity, Before: Crystalloid/particle, good
  Repose angle, Before: 41°
[2]; 5 min
  score of fluidity, adhesiveness and deliquescence: 9
[2]; 10 min
  score of fluidity, adhesiveness and deliquescence: 0
[2]; 20 min
  score of fluidity, adhesiveness and deliquescence: 0
[2]; 30 min
  score of fluidity, adhesiveness and deliquescence: 0
[2]; 60 min
  score of fluidity, adhesiveness and deliquescence: 0
[2]; 120 min
  score of fluidity, adhesiveness and deliquescence: 0
[2]; 180 min
  score of fluidity, adhesiveness and deliquescence: 0
[3]; 5 min
  passing rate of 20-mesh sieve: 97%
[3]; 10 min
  passing rate of 20-mesh sieve: 35%
[3]; 20 min
  passing rate of 20-mesh sieve: 24%
[3]; 30 min
  passing rate of 20-mesh sieve: 2%
[3]; 60 min
  passing rate of 20-mesh sieve: 0%
[3]; 120 min
  passing rate of 20-mesh sieve: 0%
[3]; 180 min
  passing rate of 20-mesh sieve: 0%

## C[N+](C)(C)CCOP(=O)([O-])OC[C@H](O)CO [Raw material 2, L-α-glycerylphosphorylcholine]
[4]; 5 min
  weight gain percentage: 3.2%
[4]; 10 min
  weight gain percentage: 4.1%
[4]; 20 min
  weight gain percentage: 7.2%
[4]; 30 min
  weight gain percentage: 9.4%
[4]; 60 min
  weight gain percentage: 12.6%
[4]; 120 min
  weight gain percentage: 14.4%
[4]; 180 min
  weight gain percentage: 18.7%

## C[N+](C)(C)CCOP(=O)([O-])OC[C@H](O)CO [Raw material 1, L-α-glycerylphosphorylcholine]
[4]; 5 min
  weight gain percentage: 3.0%
[4]; 10 min
  weight gain percentage: 4.2%
[4]; 20 min
  weight gain percentage: 7.4%
[4]; 30 min
  weight gain percentage: 9.5%
[4]; 60 min
  weight gain percentage: 12.3%
[4]; 120 min
  weight gain percentage: 14.6%
[4]; 180 min
  weight gain percentage: 18.5%
